Measured values as given in ChEMBL document CHEMBL4732096, “Design, synthesis and evaluation of calix[4]arene-based carbonyl amide derivatives with antitumor activities” (Eur J Med Chem, 2021).

Columns and labels:
HepG2 = assay: Antiproliferative activity against human HepG2 cells assessed as inhibition of cell growth at 10 uM measured after 72 hrs by MTT assay relative to control; type: functional
HT-29 = assay: Antiproliferative activity against human HT-29 cells assessed as inhibition of cell growth at 10 uM measured after 72 hrs by MTT assay relative to control; type: functional
MDA-MB-231 [1] = assay: Antiproliferative activity against human MDA-MB-231 cells assessed as inhibition of cell growth at 10 uM measured after 72 hrs by MTT assay relative to control; type: functional
MCF7 = assay: Antiproliferative activity against human MCF7 cells assessed as inhibition of cell growth at 10 uM measured after 72 hrs by MTT assay relative to control; type: functional
A549 [2] = assay: Antiproliferative activity against human A549 cells assessed as inhibition of cell growth at 10 uM measured after 72 hrs by MTT assay relative to control; type: functional
[3] = Cytotoxicity against HUVEC cells assessed as inhibition of cell growth at 10 uM measured after 72 hrs by MTT assay; type: cell-based; settings: human
A549 [4] = assay: Antiproliferative activity against human A549 cells assessed as inhibition of cell growth measured after 72 hrs by MTT assay; type: functional, cell-based; settings: A549, 72 h
MDA-MB-231 [5] = assay: Antiproliferative activity against human MDA-MB-231 cells assessed as inhibition of cell growth measured after 72 hrs by MTT assay; type: functional, cell-based; settings: MDA-MB-231, 72 h

IC50 (A549 [4]) [µM] | IC50 (MDA-MB-231 [5]) [µM] | Structure (SMILES) | inhibition at 10 µM (HepG2) [%] | inhibition at 10 µM (HT-29) [%] | inhibition at 10 µM (MDA-MB-231 [1]) [%] | inhibition at 10 µM (MCF7) [%] | inhibition at 10 µM (A549 [2]) [%] | inhibition at 72 h, 10 µM [3] [%]
13.7 | 11.7 | CC(C)(C)c1cc2c(O)c(c1)Cc1cc(C(C)(C)C)cc(c1OCCCC(=O)NCCO)Cc1cc(C(C)(C)C)cc(c1O)Cc1cc(C(C)(C)C)cc(c1OCCCC(=O)NCCO)C2 | 28.7 | 40.1 | 25.8 | 16.2 | 54.4 | 57
> 100 | 13 | CC(C)(C)c1cc2c(O)c(c1)Cc1cc(C(C)(C)C)cc(c1OCCCCCC(=O)NCCO)Cc1cc(C(C)(C)C)cc(c1O)Cc1cc(C(C)(C)C)cc(c1OCCCCCC(=O)NCCO)C2 | 22.6 | 17.3 | 34.3 | < 0 | 61.6 | < 0
7.64 | 9.15 | CC(C)(C)c1cc2c(O)c(c1)Cc1cc(C(C)(C)C)cc(c1OCCCC(=O)NCCCCCO)Cc1cc(C(C)(C)C)cc(c1O)Cc1cc(C(C)(C)C)cc(c1OCCCC(=O)NCCCCCO)C2 | 25 | 33.1 | 34.4 | < 0 | 50.5 | 5.8
> 100 | 97.6 | CC(C)(C)c1cc2c(O)c(c1)Cc1cc(C(C)(C)C)cc(c1OCCCCCC(=O)NCCCCCO)Cc1cc(C(C)(C)C)cc(c1O)Cc1cc(C(C)(C)C)cc(c1OCCCCCC(=O)NCCCCCO)C2 | 21.9 | 21.2 | 31.2 | < 0 | 46.1 | < 0
3.59 | 5.2 | CC(C)(C)c1cc2c(O)c(c1)Cc1cc(C(C)(C)C)cc(c1OC/C=C/C(=O)NCCCO)Cc1cc(C(C)(C)C)cc(c1O)Cc1cc(C(C)(C)C)cc(c1OC/C=C/C(=O)NCCCO)C2 | 9.5 | 36.1 | 61.5 | 48.2 | 63.3 | 38.8
> 100 | 42.8 | CC(C)(C)c1cc2c(O)c(c1)Cc1cc(C(C)(C)C)cc(c1OCCCCCC(=O)NCCCO)Cc1cc(C(C)(C)C)cc(c1O)Cc1cc(C(C)(C)C)cc(c1OCCCCCC(=O)NCCCO)C2 | 9.3 | 17.9 | 30.1 | < 0 | 56.5 | < 0
10.3 | 17.9 | CC(C)(C)c1cc2c(O)c(c1)Cc1cc(C(C)(C)C)cc(c1OCCCC(=O)NCCCO)Cc1cc(C(C)(C)C)cc(c1O)Cc1cc(C(C)(C)C)cc(c1OCCCC(=O)NCCCO)C2 | 24.4 | 35.3 | 29.5 | < 0 | 56.4 | < 0

Second part, the compound before the results:

Structure (SMILES) | IC50 (A549 [4]) [µM] | IC50 (MDA-MB-231 [5]) [µM] | inhibition at 10 µM (HepG2) [%] | inhibition at 10 µM (HT-29) [%] | inhibition at 10 µM (MDA-MB-231 [1]) [%] | inhibition at 10 µM (MCF7) [%] | inhibition at 10 µM (A549 [2]) [%] | inhibition at 72 h, 10 µM [3] [%]
CC(C)(C)c1cc2c(O)c(c1)Cc1cc(C(C)(C)C)cc(c1OCC(=O)NCCO)Cc1cc(C(C)(C)C)cc(c1O)Cc1cc(C(C)(C)C)cc(c1OCC(=O)NCCO)C2 | 3.84 | 4.53 | 89.9 | 66.2 | 90.5 | 92.2 | 92.3 | 19.6
CC(Oc1c2cc(C(C)(C)C)cc1Cc1cc(C(C)(C)C)cc(c1O)Cc1cc(C(C)(C)C)cc(c1OC(C)C(=O)NCCCO)Cc1cc(C(C)(C)C)cc(c1O)C2)C(=O)NCCCO (stereo not given) | 1.76 | 1.31 | 69 | 58.4 | 90.1 | 82.5 | 91.2 | 48.2
CC(C)(C)c1cc2c(O)c(c1)Cc1cc(C(C)(C)C)cc(c1OCCCCCC(=O)N(CCO)CCO)Cc1cc(C(C)(C)C)cc(c1O)Cc1cc(C(C)(C)C)cc(c1OCCCCCC(=O)N(CCO)CCO)C2 | > 100 | > 100 | 17.3 | 22.2 | 34.5 | 1.44 | 46.8 | < 0
CC(C)(C)c1cc2c(O)c(c1)Cc1cc(C(C)(C)C)cc(c1OC/C=C/C(=O)NCCO)Cc1cc(C(C)(C)C)cc(c1O)Cc1cc(C(C)(C)C)cc(c1OC/C=C/C(=O)NCCO)C2 | 6.29 | 5.46 | 19.8 | 27.8 | 35 | 38 | 63.5 | 8.9
CCC(Oc1c2cc(C(C)(C)C)cc1Cc1cc(C(C)(C)C)cc(c1O)Cc1cc(C(C)(C)C)cc(c1OC(CC)C(=O)NCCCCCO)Cc1cc(C(C)(C)C)cc(c1O)C2)C(=O)NCCCCCO (stereo not given) | 3.78 | 1.36 | 9.3 | 26.3 | 63.7 | < 0 | 52.7 | < 0
CC(Oc1c2cc(C(C)(C)C)cc1Cc1cc(C(C)(C)C)cc(c1O)Cc1cc(C(C)(C)C)cc(c1OC(C)C(=O)NCCCCCO)Cc1cc(C(C)(C)C)cc(c1O)C2)C(=O)NCCCCCO (stereo not given) | 2.98 | 3.26 | 19.8 | 49.6 | 89.3 | < 0 | 86.8 | 31.8
CC(C)(C)c1cc2c(O)c(c1)Cc1cc(C(C)(C)C)cc(c1OCCCC(=O)N(CCO)CCO)Cc1cc(C(C)(C)C)cc(c1O)Cc1cc(C(C)(C)C)cc(c1OCCCC(=O)N(CCO)CCO)C2 | 3.81 | 5.81 | 62.8 | 61.5 | 80 | 60.1 | 88.1 | < 0
CCC(Oc1c2cc(C(C)(C)C)cc1Cc1cc(C(C)(C)C)cc(c1O)Cc1cc(C(C)(C)C)cc(c1OC(CC)C(=O)NCCO)Cc1cc(C(C)(C)C)cc(c1O)C2)C(=O)NCCO (stereo not given) | 2.22 | 0.92 | 26.1 | 32.1 | 79.6 | < 0 | 68.7 | 34.3
CC(C)(C)c1cc2c(O)c(c1)Cc1cc(C(C)(C)C)cc(c1OC/C=C/C(=O)N(CCO)CCO)Cc1cc(C(C)(C)C)cc(c1O)Cc1cc(C(C)(C)C)cc(c1OC/C=C/C(=O)N(CCO)CCO)C2 | 7.04 | 6.77 | 41 | 39.8 | 58.8 | 80.2 | 82 | < 0
CCC(Oc1c2cc(C(C)(C)C)cc1Cc1cc(C(C)(C)C)cc(c1O)Cc1cc(C(C)(C)C)cc(c1OC(CC)C(=O)NCCCO)Cc1cc(C(C)(C)C)cc(c1O)C2)C(=O)NCCCO (stereo not given) | 0.96 | 0.85 | 20.3 | 41.5 | 80.1 | < 0 | 80.2 | < 0
CC(C)(C)c1cc2c(O)c(c1)Cc1cc(C(C)(C)C)cc(c1OC/C=C/C(=O)NCCCCCO)Cc1cc(C(C)(C)C)cc(c1O)Cc1cc(C(C)(C)C)cc(c1OC/C=C/C(=O)NCCCCCO)C2 | > 100 | 94.3 | 11.8 | 23.9 | 39.5 | < 0 | 37.6 | 23.8
CC(Oc1c2cc(C(C)(C)C)cc1Cc1cc(C(C)(C)C)cc(c1O)Cc1cc(C(C)(C)C)cc(c1OC(C)C(=O)N(CCO)CCO)Cc1cc(C(C)(C)C)cc(c1O)C2)C(=O)N(CCO)CCO (stereo not given) | 3.75 | 1.63 | 93.8 | 65.7 | 91.3 | 96.2 | 91.2 | 57.2
CC(Oc1c2cc(C(C)(C)C)cc1Cc1cc(C(C)(C)C)cc(c1O)Cc1cc(C(C)(C)C)cc(c1OC(C)C(=O)NCCO)Cc1cc(C(C)(C)C)cc(c1O)C2)C(=O)NCCO (stereo not given) | 2.5 | 1.18 | 67.9 | 47.3 | 89.2 | 76.8 | 91.8 | 35.7
